Reference: patent US8008285B2, “Droxidopa and pharmaceutical composition thereof for the treatment of fibromyalgia” (Chelsea Therapeutics, Inc., priority 2007, dated 2011)
“And” between values parts separate entries of the source, which are not always exact repeats. Equal values may be shown once.

Experiments:
[1] = system: Chronic Constriction Injury (CCI) model; assay: Chronic Constriction Injury (CCI) model, mechanical allodynia (electronic Von Frey); assay type: in vivo, rat; conditions: 60 minutes post dosing; for levels of allodynia compared with vehicle treated animals: ANOVA followed by t-test, significant at P<0.05; for levels of allodynia compared with vehicle treated animals / (3) Post-Treatment (tactile pressure threshold), Ave. / (3) − (2), Ave. / Inhibition (%) of allodynia, Ave. / (3) Post-Treatment (tactile pressure threshold) / (3) − (2) (Post-Treatment minus Pre-Treatment) / Inhibition (%) of allodynia: IP; for (3) Post-Treatment (tactile pressure threshold), Ave. / (3) − (2), Ave. / Inhibition (%) of allodynia, Ave.: group average of 10 animals; for (3) Post-Treatment (tactile pressure threshold), Ave. / (3) − (2), Ave. / Inhibition (%) of allodynia, Ave. / (3) Post-Treatment (tactile pressure threshold) / (3) − (2) (Post-Treatment minus Pre-Treatment) / Inhibition (%) of allodynia: 400 mg/kg droxidopa and 20 mg/kg carbidopa, or 18 mg/kg fluoxetine; for (3) Post-Treatment (tactile pressure threshold) / (3) − (2) (Post-Treatment minus Pre-Treatment) / Inhibition (%) of allodynia: individual animals, male Wistar rats
Protocol: Treatment of fibromyalgia through reducing sensitivity to chronic pain using droxidopa in combination with carbidopa was investigated using the Chronic Constriction Injury (CCI) model. […] Specifically, after anesthetization using pentobarbital (50 mg/kg, 5 ml/kg, i.p.), the sciatic nerve was exposed at mid-thigh level, and three ligatures (4-0 silk suture), about 1 mm apart, were loosely tied around the nerve. The animals were then housed individually in cages with soft bedding for seven days before testing for mechanical allodynia. […] The tip was gradually applied with sufficient force to cause slight buckling of the filament against the paw. […] Allodynia was calculated according to the following formula: % Inhibition=ΔTreatment/ΔBlank×100%. where Δ Treatment is the change in tactile pressure threshold over pre-treatment after ligation [(Post-Treatment)-(Pre-Treatment)], and Δ Blank is change in tactile pressure threshold over pre-ligation but before treatment [(Pre-Ligation)-(Pre-Treatment)]. A one-way ANOVA followed by t-test was applied for comparison between test substance treated groups and the vehicle control group. Activity was considered significant at P<0.05.

[2] = system: plasma norepinephrine; assay: Plasma norepinephrine concentration after dosing droxidopa combinations; assay type: in vivo, rat; conditions: 2 hours post-dosing, rats
Protocol: The pharmacokinetic properties of droxidopa combinations useful in the methods of the invention were evaluated in male Sprague Dawley rats.
Administration of droxidopa combinations was seen to affect plasma norepinephrine concentration in comparison to administration of droxidopa alone. Formulation 0 indicates administration of the vehicle alone without droxidopa or a droxidopa combination of the invention and provides a baseline comparative of plasma norepinephrine levels in an untreated subject.

[3] = molecular target: T1, MAO-A (Homo sapiens, UniProt P21397); conditions: cited from earlier work
T1 sequence (P21397 1-527): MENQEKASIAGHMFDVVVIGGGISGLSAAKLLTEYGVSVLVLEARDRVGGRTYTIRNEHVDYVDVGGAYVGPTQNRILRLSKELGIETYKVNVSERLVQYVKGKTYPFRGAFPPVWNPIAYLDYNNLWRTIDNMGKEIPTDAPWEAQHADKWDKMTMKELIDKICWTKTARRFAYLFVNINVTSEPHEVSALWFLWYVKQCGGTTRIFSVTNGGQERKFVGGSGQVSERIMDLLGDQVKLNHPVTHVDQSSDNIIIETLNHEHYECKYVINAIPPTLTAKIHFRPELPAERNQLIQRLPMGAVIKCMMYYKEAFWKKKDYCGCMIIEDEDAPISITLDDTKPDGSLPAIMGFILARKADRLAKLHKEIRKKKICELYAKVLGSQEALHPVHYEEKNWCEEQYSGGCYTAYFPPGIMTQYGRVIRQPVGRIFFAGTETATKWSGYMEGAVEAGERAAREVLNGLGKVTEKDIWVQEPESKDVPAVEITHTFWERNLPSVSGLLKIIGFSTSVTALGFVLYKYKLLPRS

Structure (SMILES) | levels of allodynia compared with vehicle treated animals [1] | (3) Post-Treatment (tactile pressure threshold), Ave. [1] | (3) − (2), Ave. [1] | Inhibition (%) of allodynia, Ave. [1] [%] | (3) Post-Treatment (tactile pressure threshold) [1] | (3) − (2) (Post-Treatment minus Pre-Treatment) [1] | Inhibition (%) of allodynia [1] | increase in plasma norepinephrine concentration (fold over vehicle alone) [2] [fold] | Inhibition (%) of allodynia, Ave. ([1]; listed as fluoxetine) | Inhibition (%) of allodynia ([1]; listed as fluoxetine) [%] | increases in allodynia ([1]; individual fluoxetine-treated subjects, 18 mg/kg IP) [%] | selectivity for MAO-A than MAO-B [3]
NC(C(=O)O)C(O)c1ccc(O)c(O)c1 (stereo not drawn) [Droxidopa, threo-3-(3,4-dihydroxyphenyl)serine] | significantly decreased levels of allodynia | 21.7 | 13.2 | 65.7 | 26.3 and 32.1 and 23.4 and 26.2 and 22.9 and 11.4 and 20.1 and 12.6 and 22.3 and 19.7 | 16.2 and 24.4 and 16.7 and 14.4 and 16.3 and 2.8 and 13.8 and 6 and 10.9 (2×) | total allodynia inhibition in several test subjects and 104.5% and 115.6% and 66.3% and 75.8% and 74.4% and 11.5% and 72.6% and 26.1% and 62.3% and 48.0% | ~5 |  |  |  | 
CNCCC(Oc1ccc(C(F)(F)F)cc1)c1ccccc1 (stereo not shown) [Fluoxetine, fluoxetine] | not significantly different from vehicle-treated rats | 9.2 | 0.4 | 0.7 | 14.4 and 12.4 and 11.2 and 9.7 and 7 and 10.4 and 6.5 and 8.8 and 6 and 5.9 | 5.3 and 1.2 and 3 (2×) and 0.6 (2×) and 1.6 and −5.5 and −2.7 and −3.6 | 25.0% and 5.9% and 17.3% and 3.8% (2×) and 6.1% and 12.2% and −40.1% and −12.1% and −14.6% |  | less than 1% | 25 | ≤ 40.1 | 
O=C(NCCN1CCOCC1)c1ccc(Cl)cc1 [moclobemide] |  |  |  |  |  |  |  |  |  |  |  | approximately three
